Earlier results as cited in publication PMC7914841, “Systemic Delivery of hGhrelin Derivative by Lyophilizate for Dry Powder Inhalation System in Monkeys” (Pharmaceutics, 2021).
Where no end group is shown, it is not given here. The star is where a group is joined. Octanoyl = CCCCCCCC(=O)*

System: growth hormone (GH) release
Settings: healthy humans, intravenously injected

ghrelin: peptide hormone of 28 amino acids, O-n-octanoylated at the 3rd serine residue (GSS(Octanoyl)FLSPEHQRVQQRKESKKPPAKLQPR; UniProt Q9UBU3 24-51, looked up)
ratio of AUC of GH, 5 µg/kg vs 1 µg/kg: 1.3–1.6 times
